Key:
Type in all cases: cell-based, human
[1] = system: Colo205; assay: in vitro cytotoxicity, Colo205 colon cancer cells; details: for percentage cell growth (Activity status in terms of IC50 values) Colo205 Colon: 48 h continuous drug exposure, percent of cell growth relative to untreated control cells; for suppress Colo205 cell growth: suppression of cell growth, 48 h exposure
Protocol: (§1) Cytotoxicity: The compounds 7-methoxy-8-[3-(6-chloro-2-oxo-4-phenyl-1,2-dihydro-1-quinazolinyl)propoxy]-(11aS)-1,2,3,11a-tetrahydro-5H-pyrrolo[2,1-c][1,4]benzodiazepine-5-one and 7-methoxy-8-[5-(6-chloro-2-oxo-4-phenyl-1,2-dihydro-1-quinazolinyl)pentyloxy]-(11aS)-1,2,3,11a-tetrahydro-5H-pyrrolo [2,1-c][1,4]benzodiazepine-5-one were evaluated for in vitro anticancer activity against nine human tumour cells derived from six cancer types (colon, prostate, oral, lung, cervix and breast cancer) as shown in (Table 1).
(§2) Compounds 5d and 5f have been evaluated for their in vitro cytotoxicity in selected human cancer cell lines of colon (Colo205), lung (Hop-62), cervix (SiHa), prostate (DU145, PC3), oral (DWD, HT1080), and breast (MCF7, Zr-75-1) origin. A protocol of 48 h continuous drug exposure and an […] protein assay has been used to estimate cell viability or growth. The results are expressed as percent of cell growth determined relative to that of untreated control cells (Table 1).

[2] = system: DU145; assay: in vitro cytotoxicity, DU145 prostate cancer cells; details: for percentage cell growth (Activity status in terms of IC50 values) DU145 Prostate: 48 h continuous drug exposure, percent of cell growth relative to untreated control cells; for suppress DU145 cell growth: suppression of cell growth, 48 h exposure
Protocol: as §1, §2

[3] = system: DWD; assay: in vitro cytotoxicity, DWD oral cancer cells; details: for percentage cell growth (Activity status in terms of IC50 values) DWD Oral: 48 h continuous drug exposure, percent of cell growth relative to untreated control cells; for suppress DWD cell growth: suppression of cell growth, 48 h exposure
Protocol: as §1, §2

[4] = system: Hop62; assay: in vitro cytotoxicity, Hop62 lung cancer cells; details: for percentage cell growth (Activity status in terms of IC50 values) Hop62 Lung: 48 h continuous drug exposure, percent of cell growth relative to untreated control cells; for suppress Hop62 cell growth: suppression of cell growth, 48 h exposure
Protocol: as §1, §2

[5] = system: HT1080; assay: in vitro cytotoxicity, HT1080 oral cancer cells; details: for percentage cell growth (Activity status in terms of IC50 values) HT1080 Oral: 48 h continuous drug exposure, percent of cell growth relative to untreated control cells; for suppress HT1080 cell growth: suppression of cell growth, 48 h exposure
Protocol: as §1, §2

[6] = system: MCF7; assay: in vitro cytotoxicity, MCF7 breast cancer cells; details: for percentage cell growth (Activity status in terms of IC50 values) MCF7 Breast: 48 h continuous drug exposure, percent of cell growth relative to untreated control cells; for suppress MCF7 cell growth: suppression of cell growth, 48 h exposure
Protocol: as §1, §2

[7] = system: PC3; assay: in vitro cytotoxicity, PC3 prostate cancer cells; details: for percentage cell growth (Activity status in terms of IC50 values) PC3 Prostate: 48 h continuous drug exposure, percent of cell growth relative to untreated control cells; for suppress PC3 cell growth: suppression of cell growth, 48 h exposure
Protocol: as §1, §2

[8] = system: SiHa; assay: in vitro cytotoxicity, SiHa cervix cancer cells; details: for percentage cell growth (Activity status in terms of IC50 values) SiHa Cervix: 48 h continuous drug exposure, percent of cell growth relative to untreated control cells; for suppressing the SiHa cell growth: suppression of cell growth, 48 h exposure
Protocol: as §1, §2

[9] = system: Zr-75-1; assay: in vitro cytotoxicity, Zr-75-1 breast cancer cells; details: for percentage cell growth (Activity status in terms of IC50 values) Zr-75-1 Breast: 48 h continuous drug exposure, percent of cell growth relative to untreated control cells; for suppressing Zr-25-1 cell growth: suppression of cell growth, 48 h exposure
Protocol: as §1, §2

SMILES | percentage cell growth (Activity status in terms of IC50 values) Colo205 Colon [1] | percentage cell growth (Activity status in terms of IC50 values) DU145 Prostate [2] | percentage cell growth (Activity status in terms of IC50 values) DWD Oral [3] | percentage cell growth (Activity status in terms of IC50 values) Hop62 Lung [4] | percentage cell growth (Activity status in terms of IC50 values) HT1080 Oral [5] | percentage cell growth (Activity status in terms of IC50 values) MCF7 Breast [6] | percentage cell growth (Activity status in terms of IC50 values) PC3 Prostate [7] | percentage cell growth (Activity status in terms of IC50 values) SiHa Cervix [8] | percentage cell growth (Activity status in terms of IC50 values) Zr-75-1 Breast [9] | suppress Colo205 cell growth [1] | suppress DU145 cell growth [2] | suppress DWD cell growth [3] | suppress Hop62 cell growth [4] | suppress HT1080 cell growth [5] | suppress MCF7 cell growth [6] | suppress PC3 cell growth [7] | suppressing the SiHa cell growth [8] | suppressing Zr-25-1 cell growth [9]
COc1cccc2c1C(=O)c1c(O)c3c(c(O)c1C2=O)C[C@@](O)(C(=O)CO)C[C@@H]3O[C@H]1C[C@H](N)[C@H](O)[C@H](C)O1 [ADR, adriamycin, reference compound] | 5% | 6% | 2% | 5% | 4% | 5% | 5% | 5% | 5% |  |  |  |  |  |  |  |  | 
COc1cc2c(cc1OCCCn1c(=O)nc(-c3ccccc3)c3cc(Cl)ccc31)N=C[C@@H]1CCCN1C2=O [Compound 5d, 7-Methoxy-8-[3-(6-chloro-2-oxo-4-phenyl-1,2-dihydro-1-quinazolinyl)propoxy]-(11aS)-1,2,3,11a-tetrahydro-5H-pyrrolo[2,1-c][1,4]benzodiazepine-5-one] | 8% | 8% | 5% | 6% | 9% | 12% | 11% | 16% | 8% | 92% | 92% | 95% | 94% | 91% | 88% | 89% | 84% | 92%
COc1cc2c(cc1OCCCCCn1c(=O)nc(-c3ccccc3)c3cc(Cl)ccc31)N=C[C@@H]1CCCN1C2=O [Compound 5f, 7-Methoxy-8-[5-(6-chloro-2-oxo-4-phenyl-1,2-dihydro-1-quinazolinyl)pentyloxy]-(11aS)-1,2,3,11a-tetrahydro-5H-pyrrolo[2,1-c][1,4]benzodiazepine-5-one] | 15% | 10% | 5% | 5% | 8% | 8% | 7% | 16% | 8% | 85% | 90% | 95% | 95% | 92% | 92% | 93% | 84% | 92%
